In patent publication US10322111B2, “Chemokine receptor binding heterocyclic compounds with enhanced efficacy” (Genzyme Corporation, priority 2001, dated 2019):

Columns and labels:
bone marrow stem cells = conditions: rats, coronary artery ligation, administered within hours after cardiac ischemia, with or without rhG-CSF
Procedure: Adult rats are anesthetized and a thoracotomy is performed. The descending branch of the left coronary artery is ligated and not reperfused. […] Control rats are not treated with the reagents. The animals are monitored at one-week intervals by echocardiography and MRI. […] On the day of sacrifice, the hemodynamic functions are analyzed for left ventricle-end diastolic pressure, left ventricle-developed pressure and the rate of rise and fall of left ventricle pressure. The heart is then arrested in diastole and perfused via the abdominal aorta to flush residual blood from the vascular network of the myocardium. […] Several slices are made through the fixed heart and these are embedded in paraffin and sections. The sections are stained and analyzed by light microscopy to determine the size of the infarct in the treated and control animals. […] The immunohistochemical analysis involves the identification of transcription factors and surface markers expressed in early stages of myocyte development.

[1] = tested on: circulating CD34+ progenitor/stem cells; conditions: single dose of 80 μg/kg, cited from earlier work

## c1cc(CN2CCCNCCNCCCNCC2)ccc1CN1CCCNCCNCCCNCC1 [AMD-3100]
Bone marrow stem cells
  cardiac remodeling and scar formation: block to cardiac remodeling and scar formation
  mobilization of bone marrow stem cells: mobilizes bone marrow stem cells rapidly
  regeneration of myocardium: regeneration of the dead myocardium
[1]; 6 hour time point
  peak increase in circulating CD34+ progenitor/stem cells: 6 fold
[1]
  WBC count: 17,000 μl
